The target in test [1] is T1, NS5BΔ21-His polymerase (Hepatitis C virus genotype 1b, UniProt P26663).
T1 construct: a variant that lacks the C-terminal 21 amino acids normally found on the mature NS5B; hexa-histidine (C); made in house; host or cells: E. coli JM109 (DE3), pET vector
Description: Fluorescence anisotropy titration of probe with NS5BΔ21-His. To be noted: Kd of probe for NS5BΔ21-His. The format is binding, HCV. As to the method:
Titration of the probe with the enzyme was performed as follows:
(§1) The fluorescein labeled probe was diluted to the desired concentration in 20 mM Tris-HCl pH 7.5, 1 mM EDTA, 5 mM MgCl2, 1 mM DTT and 10% DMSO. The NS5BΔ21-His protein was serially diluted in 25 mM Tris-HCl pH 7.5, 300 mM NaCl, 5 mM DTT, 1 mM EDTA, 30% glycerol and 0.1% IGEPAL. Total volume of the reaction was 500 μL and final assay buffer was 20 mM Tris-HCl pH 7.5, 1 mM EDTA, 5 mM MgCl2, 1 mM DTT, 30 mM NaCl, 3% glycerol, 0.01% IGEPAL and 5% DMSO. Anisotropy measurements were performed on a SLM Aminco 8100 Spectrofluorometer equipped with a 450-W xenon arc lamp and a T-optics configuration. Excitation wavelength was at 493 nm and emission was monitored at 530 nm. In each anisotropy measurement, the parallel and perpendicular intensities of the background buffer solution was subtracted from the measured values of the sample and the anisotropy was calculated. Data were processed on SAS program (SAS Institute Inc., NC, USA) for a non linear regression to obtain the direct binding equilibrium constant and other parameters, and the plot of the regressed fit over the experimental data. An example of a titration curve obtained with probe (i) is shown on FIG. 1.
The usefulness of this polarization assay is evident when binding of compounds has to be studied under different conditions. For example, binding constants of the probes have been determined at different concentrations of salts and pH. FIGS. 5 to 8 show the binding curves of probe (i) in final NaCl concentrations ranging from 30 mM to 200 mM. […] All other reagents in the assay were as described in the standard protocol (Example 3). […] Studies at pH 6.5 were also performed to determine the Kd of the probe (i) at lower pH. For these assays, 20 mM Phosphate buffer pH 6.5 was used in place of Tris; all other reagents of the assay were as described in the 96-well Polarization assay (Example 4). […] Having established these Kd values under different experimental conditions, it is then trivial to determine what concentrations of probe and enzyme should be used to obtain 70% of binding of the probe with the equilibrium equation. Once these values are obtained, compounds of interest can easily be studied under the new conditions to determine their Kd values.

Test [2] has as its target T2, His-NS5BΔ21 polymerase (Hepatitis C virus genotype 1b, UniProt P26663).
T2 construct: a variant that lacks the C-terminal 21 amino acids normally found on the mature NS5B; hexa-histidine (N); made in house; host or cells: E. coli JM109 (DE3), pET vector
Description: Fluorescence anisotropy/polarization titration of probe with His-NS5BΔ21. Type of test: binding, HCV. Particulars: Kd of probe for N-terminally tagged His-NS5BΔ21, standard conditions. As to the method:
as §1, with “Data were processed on SAS program (SAS Institute Inc., NC, USA) for a non linear regression to obtain the direct binding equilibrium constant and other parameters, and the plot of the regressed fit over the experimental data. An example of a titration curve obtained with probe (i) is shown on FIG. 1.” left out
To obtain Kd values of different compounds competing with these probes (test compounds), this assay was transformed to a more amenable format and a binding assay was made suitable for a 96-well microplate reader. […] The NS5BΔ21-His concentration in the assay was calculated to obtain 70% of binding of the probe; these conditions allowed for the displacement of the probe by test compounds. […]
The Fluorescence polarization assay was also used with other constructs of our HCV polymerase enzyme. […]
(Polarisation of emitted light reports the rotation of a fluorescent probe.)

Test [3] has as its target T3, GBV-BΔ23-His polymerase (Hepatitis GB virus B, UniProt Q69422).
T3 construct: The GBV-B polymerase enzyme (termed GBV-BΔ23-His; 3); His tag (C); made in house; host or cells: E. coli JM109 (DE3), pET vector
The test is described as follows: Fluorescence anisotropy titration of probe with GBV-B polymerase. The format is binding. As to the method: as §1, with “An example of a titration curve obtained with probe (i) is shown on FIG. 1.” left out
(§2) The GBV-B and the HCV 1a polymerases were used to titrate probe ii, using the protocol described in Example 3. […] Kd values for a series of compounds were determined with these two HCV (genotypes 1a and 1b) polymerases, using the assay format described in Example 4.

In test [4] the target is T4, His-NS5BΔ21(H77c, HCV genotype 1a) polymerase (Hepatitis C virus genotype 1a, UniProt P27958).
T4 construct: The HCV genotype 1a NS5B polymerase [termed His-NS5BΔ21 (H77c, 1a); 4]; His tag (N); made in house; host or cells: E. coli JM109 (DE3), pET vector
Description: Fluorescence anisotropy titration of probe with HCV genotype 1a polymerase. Type of test: binding. Particulars: Kd of probe for HCV genotype 1a polymerase, standard conditions of Example 3. As to the method:
as §1, with “data.” for “data. An example of a titration curve obtained with probe (i) is shown on FIG. 1.”
as §2

Setting [5] is: standard conditions of Example 3 (Tris-HCl pH 7.5, 30 mM NaCl).

The source of these data is patent US7294457B2, “Direct binding assay for identifying inhibitors of HCV polymerase” (priority 2001, dated 2007).

“And” between values parts separate entries of the source, which are not always exact repeats. Equal entries are not always repeated.

The term Kd denotes the free concentration of one partner at which half of the binding sites on the other are occupied at equilibrium, for simple one-to-one binding. Consider `O=C(O)COc1ccc2[nH]cc(C[C@H](NC(=O)c3ccc4c(c3)nc(-c3ccc(C(=O)NCCNC(=S)Nc5ccc(-c6c7ccc(=O)cc-7oc7cc(O)ccc67)c(C(=O)O)c5)cc3)n4C3CCCCC3)C(=O)O)c2c1` [probe (i), 5-[3-(2-{[1-(4-{5-[(S)-1-Carboxy-2-(5-carboxymethoxy-1-H-indol-3-yl)-ethylcarbamoyl]-1-cyclohexyl-1H-benzimidazol-2-yl}-phenyl)-methanoyl]-amino}-ethyl)-thioureido]-2-(6-hydroxy-3-oxo-3H-xanthen-9-yl)-benzoic acid], for which the dissociation constant Kd in test [1] (20 mM Phosphate buffer pH 6.5 in place of Tris) is 33 nM; in test [1] (30 mM NaCl), 15 nM and 15.3 nM; in test [1] (100 mM NaCl), 39 nM; in test [1] (150 mM NaCl), 78 nM; in test [1] (200 mM NaCl) it was 122 nM; in test [1] (setting [5]) it was 15 nM and 12.6 nM. In addition, the dissociation constant Kd in test [2] is 18 nM and 18.1 nM.

As to `O=C(O)COc1ccc2[nH]cc(C[C@H](NC(=O)c3ccc4c(c3)nc(-c3ccc(OCC(=O)NCCNC(=S)Nc5ccc(-c6c7ccc(=O)cc-7oc7cc(O)ccc67)c(C(=O)O)c5)cc3)n4C3CCCCC3)C(=O)O)c2c1` [probe (ii), 5-(3-{2-[2-(4-{5-[(S)-1-Carboxy-2-(5-carboxymethoxy-1-H-indol-3-yl)-ethylcarbamoyl]-1-cyclohexyl-1H-benzimidazol-2-yl}-phenoxy)-ethanoylamino]-ethyl}-thioureido)-2-(6-hydroxy-3-oxo-3H-xanthen-9-yl)-benzoic acid], the Kd was 1800 nM and 1790 nM in test [3] (Kd of probe for GBV-BΔ23-His polymerase, estimated value with an incomplete curve); 6 nM in test [1] (setting [5]); 18 nM and 18.2 nM in test [4]. Besides, the “Kd with GBV-B polymerase relative to HCV polymerases” value in test [3] (fold higher Kd, specificity) is listed as “at least 100 fold”.
